Type in all cases: in vivo
Data set [1] concerns wheat. The data set is described as follows: Post-emergence crop phytotoxicity, wheat, with or without safener CQC. The protocol:
(§1) Seeds of a variety of test species are sown in standard soil in pots (Lolium perenne (LOLPE), Setaria faberi (SETFA), Alopecurus myosuroides (ALOMY), Echinochloa crus-galli (ECHCG), Avena fatua (AVEFA)). After cultivation for one day (pre-emergence) or after 8 days cultivation (post-emergence) under controlled conditions in a glasshouse (at 24/16° C., day/night; 14 hours light; 65% humidity), the plants are sprayed with an aqueous spray solution derived from the formulation of the technical active ingredient in acetone/water (50:50) solution containing 0.5% Tween 20 (polyoxyethelyene sorbitan monolaurate, CAS RN 9005-64-5). Compounds are applied at […]. The test plants are then grown in a glasshouse under controlled conditions in a glasshouse (at 24/16° C., day/night; 14 hours light; 65% humidity) and watered twice daily. After 13 days for pre and post-emergence, the test is evaluated for the percentage damage caused to the plant. The biological activities are shown in the following table on a five point scale (5=80-100%; 4=60-79%; 3=40-59%; 2=20-39%; 1=0-19%).
(§2) Using procedures outlines above, wheat and barley crop plants are treated, along with two weed species Avena fatua (AVEFA) and Lolium multiflorum (LOLPE) post-emergence with compound A2 of the present invention or comparator compound C1 (Compound A-38 from WO2014/096289) at the application rates indicated. The compounds were also applied in conjunction with the safener compound cloquintocet-mexyl (CQC) at 50 g/ha.

In data set [2] the test system is Setaria faberi (SETFA). The data set is described as follows: Glasshouse herbicidal test, pre- and post-emergence, Setaria faberi. The conditions noted are these: 250 g/h, evaluated after 13 days, five point scale; for percentage damage caused to the plant, SETFA PRE: pre-emergence. Summed up: (§3)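 Pots of the weeds sprayed either 1 day after sowing (pre-emergence) or after 8 days' growth (post-emergence), at 250 g/h in acetone/water with 0.5% Tween 20. Grown in a glasshouse at 24/16° C. day/night with 14 h light and 65% humidity. Damage scored 13 days later on a 1–5 scale (5=80-100%, 1=0-19%).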

Data set [3] has as its system Lolium multiflorum. Put plainly: Post-emergence weed phytotoxicity, Lolium multiflorum, with or without safener CQC. On the procedure: as §1, §2
Data set [4] has as its system Avena fatua (AVEFA). The data set is described as follows: Glasshouse herbicidal test, pre- and post-emergence, Avena fatua. The conditions noted are these: 250 g/h, evaluated after 13 days, five point scale; for percentage damage caused to the plant, AVEFA POST: post-emergence; for percentage damage caused to the plant, AVEFA PRE: pre-emergence. Summed up: as §3
Data set [5] concerns barley. The data set is described as follows: Post-emergence crop phytotoxicity, barley, with or without safener CQC. The protocol:
as §1, §2

Data set [6] deals with Lolium perenne (LOLPE). Put plainly: Glasshouse herbicidal test, pre- and post-emergence, Lolium perenne. The conditions noted are these: 250 g/h, evaluated after 13 days, five point scale; for percentage damage caused to the plant, LOLPE POST: post-emergence; for percentage damage caused to the plant, LOLPE PRE: pre-emergence. An outline of the steps:
as §3

Data set [7] relates to Avena fatua (AVEFA). The data set is described as follows: Post-emergence weed phytotoxicity, Avena fatua, with or without safener CQC. The protocol: as §1, §2
Data set [8] relates to Echinochloa crus-galli (ECHCG). The data set is described as follows: Glasshouse herbicidal test, pre- and post-emergence, Echinochloa crus-galli. The conditions noted are these: 250 g/h, evaluated after 13 days, five point scale; for percentage damage caused to the plant, ECHCG POST: post-emergence; for percentage damage caused to the plant, ECHCG PRE: pre-emergence. An outline of the steps: as §3

Data set [9] deals with Alopecurus myosuroides (ALOMY). The data set is described as follows: Glasshouse herbicidal test, pre- and post-emergence, Alopecurus myosuroides. The conditions noted are these: 250 g/h, evaluated after 13 days, five point scale; for percentage damage caused to the plant, ALOMY POST: post-emergence; for percentage damage caused to the plant, ALOMY PRE: pre-emergence. An outline of the steps:
as §3

Setting [10] is: 60 g/ha + safener cloquintocet-mexyl (CQC) at 50 g/ha.

As for `CC#Cc1cc(C)c(C2C(=O)CC3(CCN(C(C)=O)CC3)CC2=O)c(C)c1` [Compound A2, 3-acetyl-9-(2,6-dimethyl-4-prop-1-ynyl-phenyl)-3-azaspiro[5.5]undecane-8,10-dione], the results for the “% phytotoxicity, Wheat” value in data set [1] (30 g/ha), in data set [1] (60 g/ha) and in [1] (setting [10]) were 5%, 15% and 5%, respectively. The “damage to the wheat crop compared to prior art compound C1” value in data set [1] (rates of Table B2) is listed as “significantly less damaging”. The “percentage damage caused to the plant, SETFA PRE” value in [2] is recorded as 5 (5=80-100%). Further, the “% phytotoxicity, LOLMU” value in data set [3] (30 g/ha) was 98%; in data set [3] (60 g/ha) it was 100%; in data set [3] (setting [10]), 100%. For the same compound, the “percentage damage caused to the plant, AVEFA POST” value in data set [4] is given as 5 (5=80-100%). In [4], the “percentage damage caused to the plant, AVEFA PRE” value is recorded as 5 (5=80-100%). For the same compound, the figures for the “% phytotoxicity, Barley” value in [5] (30 g/ha), in [5] (60 g/ha) and in [5] (setting [10]) were 0%, 15% and 0%, respectively. In addition, the “damage to the barley crop compared to prior art compound C1” value in [5] (rates of Table B2) is reported as “significantly less damaging”. For the same compound, in [6], the “percentage damage caused to the plant, LOLPE POST” value is on record as 5 (5=80-100%). For the same compound, in data set [6], the “percentage damage caused to the plant, LOLPE PRE” value was 5 (5=80-100%). Further, the “% phytotoxicity, AVENA” value is 75% in data set [7] (30 g/ha), 92% in data set [7] (60 g/ha) and 92% in data set [7] (setting [10]). For the same compound, the “percentage damage caused to the plant, ECHCG POST” value in data set [8] is on record as 5 (5=80-100%). Further, the “percentage damage caused to the plant, ECHCG PRE” value in data set [8] is 5 (5=80-100%). Besides, the “percentage damage caused to the plant, ALOMY POST” value in data set [9] is 5 (5=80-100%). Moreover, in data set [9], the “percentage damage caused to the plant, ALOMY PRE” value is recorded as 5 (5=80-100%).

As for `CC#Cc1cc(C)c(C2C(=O)CC3(CCOCC3)CC2=O)c(C)c1` [Compound C1, reference compound], the “% phytotoxicity, Wheat” value in data set [1] (30 g/ha) was 25%; in [1] (60 g/ha) it was 75%; in data set [1] (setting [10]), 50%. The entries for the “% phytotoxicity, LOLMU” value in data set [3] (30 g/ha), in data set [3] (60 g/ha) and in data set [3] (setting [10]) were 98%, 100% and 100%, respectively. Also, the “% phytotoxicity, Barley” value turned out to be 5% in data set [5] (30 g/ha), 90% in data set [5] (60 g/ha) and 18% in data set [5] (setting [10]). Further, the “% phytotoxicity, AVENA” value worked out at 65% in [7] (30 g/ha), 90% in [7] (60 g/ha) and 80% in data set [7] (setting [10]).

On to `CC#Cc1cc(C)c(C2=C(OC(=O)C(C)(C)C)CC3(CCN(C(C)=O)CC3)CC2=O)c(C)c1` [Compound P11], for which the “percentage damage caused to the plant, SETFA POST” value in data set [2] (post-emergence) is 5 (5=80-100%). The “percentage damage caused to the plant, SETFA PRE” value in data set [2] is listed as 5 (5=80-100%). For the same compound, in data set [4], the “percentage damage caused to the plant, AVEFA POST” value is 5 (5=80-100%) and the “percentage damage caused to the plant, AVEFA PRE” value is 5 (5=80-100%). In data set [6], the “percentage damage caused to the plant, LOLPE POST” value is recorded as 5 (5=80-100%) and the “percentage damage caused to the plant, LOLPE PRE” value is on record as 5 (5=80-100%). Also, in [8], the “percentage damage caused to the plant, ECHCG POST” value is on record as 5 (5=80-100%) and the “percentage damage caused to the plant, ECHCG PRE” value was 5 (5=80-100%). For the same compound, in [9], the “percentage damage caused to the plant, ALOMY POST” value is listed as 5 (5=80-100%) and the “percentage damage caused to the plant, ALOMY PRE” value is on record as 5 (5=80-100%).

The values above are taken from patent US11542235B2, “Herbicidal 3-azaspiro[5.5] undecane-8, 10-dione compounds” (SYNGENTA PARTICIPATIONS AG, priority 2018, dated 2023).
